# How the values were obtained:
# RAB1 (RabO) = target: T1, RAB1 (RabO) (Aspergillus nidulans, UniProt C8V3Z5); assay: GDP/mant-GDP exchange, Trp-to-mant FRET ([…] nm), exponential fit; type: binding; settings: 5 uM GDP-loaded GST-RAB1, 50 uM mant-GDP, 10 mM MgCl2, 10 mM KCl, 2 mM DTT, 50 mM Tris-HCl pH 7.5, 30 C; no GEF
# T1 construct: gene ANIA_04281; GST fusion, expressed in E. coli, purified on glutathione-Sepharose 4B, GDP-loaded; GST not reported cut
# [1] = target: TRAPPII from tca17Δ cells (Aspergillus nidulans); assay: negative-stain electron microscopy; Trs120-S-purified complexes eluted from S-agarose with S-peptide, concentrated, stained with 2% uranyl acetate; single particle 2D classification
# T1 sequence (C8V3Z5 entry or part of it): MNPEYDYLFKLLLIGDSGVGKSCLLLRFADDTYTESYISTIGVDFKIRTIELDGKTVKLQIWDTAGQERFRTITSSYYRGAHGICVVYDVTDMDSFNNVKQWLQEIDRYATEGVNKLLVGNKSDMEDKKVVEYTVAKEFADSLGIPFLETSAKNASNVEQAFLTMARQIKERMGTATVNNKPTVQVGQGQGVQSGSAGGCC
Molecule,koff (RAB1 (RabO)),percent of particles that are TRAPPII dimers [1] [%]
Nc1nc2c(ncn2[C@@H]2O[C@H](COP(=O)(O)OP(=O)(O)O)[C@@H](O)[C@H]2O)c(=O)[nH]1 [GDP],Time courses of mant-GDP exchange for GDP were used to calculate the observed koff of GDP,
TRAPPII from tca17Δ cells (complex),,12
